According to US20240199661A1, “BICYCLIC HETEROARYL PHOSPHONATE DERIVATIVES AS ECTONUCLEOTIDE PYROPHOSPHATASE PHOSPHODIESTERASE 1 INHIBITORS” (RIBOSCIENCE LLC, priority 2021, published 2024):
Where a name gives a salt, the structure may show the parent alone.

test system: HGS tumor model; assay: Anti-tumor activity in HGS tumor model; type: in vivo; settings: 20/kg of compound

Row | Structure (SMILES) | antitumor activity
1 | C=CC(=O)N1CCN(CCCn2c(=O)c(-c3c(Cl)c(OC)cc(OC)c3Cl)cc3cnc(NC)nc32)CC1 [8-(3-(4-acryloylpiperazin-1-yl)propyl)-6-(2,6-dichloro-3,5-dimethoxyphenyl)-2-(methylamino)pyrido[2,3-d]pyrimidin-7(8H)-one] | significant antitumor activity and induced tumor regression

same assay, conditions: animals treated with 20/kg of compound, day 42 after inoculation (vehicle 645)

Row | Structure (SMILES) | tumor size [mm3]
2 | C=CC(=O)N1CCN(CCCn2c(=O)c(-c3c(Cl)c(OC)cc(OC)c3Cl)cc3cnc(NC)nc32)CC1 [8-(3-(4-acryloylpiperazin-1-yl)propyl)-6-(2,6-dichloro-3,5-dimethoxyphenyl)-2-(methylamino)pyrido[2,3-d]pyrimidin-7(8H)-one] | 55

target: T1, ENPP1 (Homo sapiens, UniProt P22413); assay: Measurement of pNP-TMP hydrolysis by ENPP1 (enzyme activity assay, absorbance at 405 nm); type: biochemical; settings: purified ENPP1, 500 μM pNP-TMP, Km 232 μM; Ki from IC50 by Cheng-Prusoff
T1 sequence (P22413 1-925): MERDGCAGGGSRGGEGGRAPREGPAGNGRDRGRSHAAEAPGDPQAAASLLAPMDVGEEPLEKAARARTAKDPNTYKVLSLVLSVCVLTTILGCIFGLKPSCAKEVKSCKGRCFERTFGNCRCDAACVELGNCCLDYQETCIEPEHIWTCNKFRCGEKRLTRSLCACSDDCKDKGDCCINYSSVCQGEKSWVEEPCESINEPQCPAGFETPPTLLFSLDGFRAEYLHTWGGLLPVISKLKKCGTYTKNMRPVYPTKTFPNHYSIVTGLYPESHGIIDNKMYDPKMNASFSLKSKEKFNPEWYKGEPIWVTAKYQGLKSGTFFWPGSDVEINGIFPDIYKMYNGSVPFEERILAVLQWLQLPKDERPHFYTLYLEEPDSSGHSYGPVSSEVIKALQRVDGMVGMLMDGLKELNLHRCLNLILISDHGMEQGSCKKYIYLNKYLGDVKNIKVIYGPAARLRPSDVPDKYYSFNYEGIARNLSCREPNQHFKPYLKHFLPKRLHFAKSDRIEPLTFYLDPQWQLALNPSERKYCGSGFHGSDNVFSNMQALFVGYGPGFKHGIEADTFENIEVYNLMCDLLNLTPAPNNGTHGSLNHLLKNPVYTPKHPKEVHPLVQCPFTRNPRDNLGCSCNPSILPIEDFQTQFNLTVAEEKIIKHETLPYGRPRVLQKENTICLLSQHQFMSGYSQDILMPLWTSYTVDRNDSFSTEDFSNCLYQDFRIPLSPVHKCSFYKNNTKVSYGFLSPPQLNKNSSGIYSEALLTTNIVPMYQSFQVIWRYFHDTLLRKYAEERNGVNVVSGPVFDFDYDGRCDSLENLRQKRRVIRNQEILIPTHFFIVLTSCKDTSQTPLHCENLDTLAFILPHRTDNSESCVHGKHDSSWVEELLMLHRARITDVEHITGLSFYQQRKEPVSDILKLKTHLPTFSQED
Procedure: Measurement of pNP-TMP Hydrolysis by ENPP1
p-Nitrophenyl thymidine 5′-monophosphate (pNP-TMP) is a synthesized substrate for ENPP1. The ENPP1 enzyme activity assay with pNP-TMP substrate was conducted as follows:
First, in a 60 μl reaction, 7.5 ng purified ENPP1 was mixed with compounds of Formula (I) (test compound) ranging from 13.7 pM to 10 μM. Incubation of ENPP1 with compounds was set at 25° C. for 10 min. Reactions with DMSO only (with ENPP1 but no compound) gave the fastest reaction (MAX Activity). For each compound dilution, wells with assay buffer (50 mM Tris-HCl, pH8.8, 250 mM NaCl, 0.1 mg/ml BSA, 1% DMSO) only but no ENPP1 were included as controls for subtraction of test compound derived absorbance at 405 nm.
Second, after the 10 minutes ENPP1 and test compound incubation the assay was initiated by transferring 50 μl of the above mentioned ENPP1/test compound reaction into 50 μl of 1 mM pNP-TMP in assay buffer results in a 100 μl total reaction in clear bottom 96 well plates. Absorbance at 405 nm was recorded immediately in kinetic mode by PerkinElmer 2300 Enspire multimode plate reader.
For each inhibitor, the specific ENPP1 activity was calculated using the following equation: ENPP1 activity (pmol/min/μg)=Adjusted Vmax (OD405 nm/min)×conversion factor (pmol/OD405 nm)/amount of enzyme (μg)
Adjusted Vmax=V0×(Km+(S))/(S). In this assay, Km=232 μM, (S)=500 μM. Adjusted Vmax=1.464×V0.
V0=(OD405 nm with ENPP1−OD405 nm ENPP1 blank)/minutes. OD405 nm was plotted, with blank subtracted, against time (minutes), the initial linear rate is V0. […]
The conversion factor (pmol/OD405 nm), was determined by plotting the amount of standard, 4-Nitrophenol (Sigma-Aldrich, Catalog #241326), against absorbance at 405 nm. The slope is the conversion factor. The percent ENPP1 activity for each sample was calculated using the following equation:
% enzyme activity=sample enzyme activity/MAX Activity×100%.
To determine the IC50 for each compound, compound concentration values and percent enzyme activity values were inserted into GraphPad Prism (GraphPad Prism version 7.0 for Windows, GraphPad Software, La Jolla California USA, www.graphpad.com), and Prism's Transform analysis was used to convert the x-axis values (compound concentration) to logarithms. A sigmoidal variable slope nonlinear regression analysis was performed using the following equation: Y=Bottom+(Top−Bottom)/(1+10^((Log IC50−X)*HillSlope)).
Ki values for each compound were calculated from the observed IC50 from GraphPad analysis using the Cheng-Prusoff equation: Ki=IC50/(1+(S)/KM). (S) here is 500 μM and KM is determined to be 232 μM.

Row | Structure (SMILES) | Ki [nM]
3 | CNC(=O)c1c[nH]c2c(N3CCC(CCP(=O)(O)O)CC3)ncnc12 [Compound 6, 2-[1-[7-(methylcarbamoyl)-5H-pyrrolo[3,2-d]pyrimidin-4-yl]-piperidin-4-yl]ethylphosphonic acid] | < 1000
4 | CNC(=O)c1c[nH]c2c(NCc3ccc(CP(=O)(O)O)cc3)ncnc12 [Compound 4, [4-([[7-(methylcarbamoyl)-5H-pyrrolo[3,2-d]pyrimidin-4-yl]amino]-methyl)phenyl]methylphosphonic acid] | < 1000
5 | CCOP(=O)(O)c1ccc(CNc2ncnc3c(C(=O)NC)c[nH]c23)cc1 [Compound 2, ethoxy(4-([[7-(methylcarbamoyl)-5H-pyrrolo[3,2-d]pyrimidin-4-yl]-amino]methyl)phenyl)phosphinic acid] | > 10000
6 | NC(=O)c1n[nH]c2c(NCc3ccc(P(=O)(O)O)cc3)ncnc12 [Compound 14, 4-[([3-carbamoyl-1H-pyrazolo[4,3-d]pyrimidin-7-yl]amino)methyl]-phenylphosphonic acid] | < 1000
7 | CNC(=O)c1c[nH]c2c(NCc3ccc(P(=O)(O)O)cc3)ncnc12 [Compound 3, 4-([[7-(methylcarbamoyl)-5H-pyrrolo[3,2-d]pyrimidin-4-yl]amino]-methyl)phenylphosphonic acid] | < 1000
8 | Cn1ncc2ncnc(NCc3ccc(P(=O)(O)O)cc3)c21 [Compound 1, 4-[([1-methylpyrazolo[4,3-d]pyrimidin-7-yl]amino)methyl]-phenyl-phosphonic acid] | < 100
9 | CC(C)c1nc(NCc2ccc(P(=O)(O)O)cc2)c2c(cnn2C)n1 [Compound 17, 4-(((5-isopropyl-1-methyl-1H-pyrazolo[4,3-d]pyrimidin-7-yl)amino)methyl)phenyl-phosphonic acid] | < 1000
10 | O=P(O)(O)c1ccc(CNc2ncnc3cn[nH]c23)cc1 [Compound 12, 4-([1H-pyrazolo[4,3-d]pyrimidin-7-ylamino]methyl)phenyl-phosphonic acid] | < 100
11 | CC(C)c1nc(NCc2ccc(P(=O)(O)O)cc2)c2[nH]ncc2n1 [Compound 18, 4-[([5-isopropyl-1H-pyrazolo[4,3-d]pyrimidin-7-yl]amino)methyl]phenylphosphonic acid formic acid salt] | < 1000
12 | CC(=O)Nc1csc2c(NCc3ccc(P(=O)(O)O)cc3)ncnc12 [Compound 15, 4-[([7-acetamidothieno[3,2-d]pyrimidin-4-yl]amino)methyl]-phenylphosphonic acid] | < 100
13 | CNC(=O)c1c[nH]c2c(N3CCC(CCCP(=O)(O)O)CC3)ncnc12 [Compound 11, 3-[1-[7-(methylcarbamoyl)-5H-pyrrolo[3,2-d]pyrimidin-4-yl]-piperidin-4-yl]propylphosphonic acid] | < 10000
14 | O=P(O)(O)c1ccc(CNc2ncnc3ccsc23)cc1 [Compound 16, 4-([thieno[3,2-d]pyrimidin-4-ylamino]methyl)phenyl-phosphonic acid] | < 100
15 | CCOP(=O)(O)CCCC1CCN(c2ncnc3c(C(=O)NC)c[nH]c23)CC1 [Compound 10, ethoxy(3-[1-[7-(methylcarbamoyl)-5H-pyrrolo[3,2-d]pyrimidin-4-yl]-piperidin-4-yl]propyl)phosphinic acid] | > 10000
16 | CCOP(=O)(CC1CCN(c2ncnc3c(C(=O)NC)c[nH]c23)CC1)OCC (single isomer, unassigned) [Compound 7, diethyl [1-[7-(methylcarbamoyl)-5H-pyrrolo[3,2-d]pyrimidin-4-yl]-piperidin-4-yl]methylphosphonate] | > 10000
17 | CNC(=O)c1c[nH]c2c(N3CCC(CP(=O)(O)O)CC3)ncnc12 [Compound 9, [1-[7-(methylcarbamoyl)-5H-pyrrolo[3,2-d]pyrimidin-4-yl]piperidin-4-yl]methylphosphonic acid] | < 1000
